{"source": "patent US20150225454A1", "about": "“TETRABRANCHED PEPTIDES AND ANALOGUES AS A NEW CLASS OF ANTIMICROBIALS AND THEIR PREPARATION THEREOF” (priority 2012, published 2015)", "key": {"C. albicans [1]": {"tested_on": "C. albicans", "assay": "Measurement of extracellular cations (ICP-OES)", "assay_type": "cell-based", "procedure": "Overnight cultured late logarithmic phase C. albicans was harvested by centrifugation, washed 5 times with 10 mM HEPES (pH 7.0), resuspended in the same buffer and adjusted to an OD600=0.4. To 5 ml of this suspension, B4010 (final concentration 5.5 μM) was added and incubated at 37° C. for 2 h. The mixture was centrifuged at 3,000 g and the presence of K^+, Ca^2+ and Mg^2+ in the supernatant was estimated by Perkin Elmer Dual-view Optima 5300 DV inductively coupled plasma-optical emission spectrometry (ICP-OCS Massachusetts, USA) available at CMMAC facilities (Department of Chemistry, National University of Singapore)."}, "C. albicans [2]": {"tested_on": "C. albicans", "assay_type": "cell-based", "procedure": "For the effects of energy poisons and ion channel inhibitors, yeast cells (10^5-10^6 CFU/ml) were incubated for 2 h with or without additives at 37° C. A final concentration of 5.5 μM B4010 peptide was added to the cell suspension and incubated further for another 1.5 h at 37° C. Each cell suspension was further diluted and 100 μl of the cells were plated and incubated at 37° C. SDA plates with additives (and no peptide) served as the positive control. Cell viability was obtained by counting the number of colonies formed in each plate after 48 h incubation at 37° C. The final concentrations of the additives were: CCCP (5 μM), NaN3 (5 mM), 4-AP (1 mM), NPPB (0.5 mM), […] (1 mM) and tetra ethyl ammonium chloride (15 mM). The reported values were averages of two independent duplicate experiments. Control experiments with all the additives were also performed to assess the toxicity of the additives to C. albicans."}, "C. albicans ATCC 10231": {"tested_on": "C. albicans ATCC 10231", "assay": "Antifungal activity after incubation with trypsin", "assay_type": "cell-based", "conditions": "trypsin:peptide 1:100, 37° C., up to 6 h", "procedure": "For all the experiments, unless otherwise stated, ATCC 10231 strain was used. B4010 (1 mg/ml) was incubated with trypsin (enzyme:peptide ratio 1:100) at 37° C. 20 μL aliquot of this mixture was withdrawn at various time intervals (0.5, 1, 2, 4 and 6 h) and mixed with 1 μL of trypsin inhibitor. The antifungal activity of the peptide was determined by adding this mixture to 180 μl of inoculum and monitoring the growth at OD600 for 24 h. Similar experiments performed in the presence of trypsin/trypsin inhibitor (without B4010) were used as a positive control. For assessing the antifungal activity in tear fluid (TF), the peptide was dissolved in freshly collected rabbit TF and incubated at 37° C. for 6 h. After incubation, an equal volume of an overnight culture of C. albicans (˜10^6 CFU/ml) was mixed with peptides in tear fluid and incubated at 37° C. for 24 h. The final concentrations of the peptide were at 4.4, 8.8 and 22 μM. A 100 μL aliquot of serial dilutions (10^2 or 10^3 times) of this mixture were inoculated on a SD agar plate and then incubated for 48 h at 37° C. Culture alone and culture with 50% tear fluid served as the positive control. […]\nThe peptide B4010 was incubated with trypsin (trypsin:peptide ratio=1:100) at 37° C. An aliquot of this mixture was withdrawn at various time intervals, added to the C. albicans inoculum and the growth was monitored (FIG. 3C)."}, "[3]": {"tested_on": "C. albicans 2672R and C. albicans 1976R", "assay_type": "cell-based", "conditions": "two clinical isolates", "procedure": "The effect of 5% human serum on the activities of B4010 against two C. albicans clinical isolates was determined. The human male serum was centrifuged at 13,000 rpm for 10 mins in order to remove the lipids and the supernatant was collected. The MIC values against clinical isolates of C. albicans 2672R and C. albicans 1976R were determined both in standard medium (SD broth) as well as in standard medium containing 5% serum supernatant as before."}, "C. albicans (ATCC 10231)": {"tested_on": "C. albicans (ATCC 10231)", "assay": "SYTOX Green (SG) uptake assay", "assay_type": "cell-based"}, "[4]": {"assay": "Calcein release from fungal model membrane SUVs", "conditions": "peptide:lipid ratio 1:30 and 1:15", "procedure": "For the preparation of PC/PE/PI or PS/Erg SUV, the lipids were dissolved in chloroform/methanol (2:1, v/v) in a glass tube. Ergosterol was dissolved in same solvent and added to lipid mixture to make final ergosterol content of 15 wt %. The Lipid-ergosterol mixture was dried using nitrogen gas to form lipid layer. The film was hydrated in a buffer containing 20 mM PBS (pH 7), vortexed and sonicated. Each cycle of sonication (5 sec, 40° C.) is followed by freezing in liquid nitrogen and thawing on a water bath kept at 37° C. The procedure was repeated 5-6 times until an optically clear dispersion appeared. The SUV was divided into two parts. To the first part 50 mM calcein was added and incubated for 1 h. The excess calcein was removed by injecting 100 μL of the calcein-loaded SUV's into a Ultrahydrogel™ 250 (7.8 mm×300 mm) column equilibrated with 20 mM PBS (pH 7.0) and eluted isochratically at a flow rate of 1 ml/min for 1.5 column volumes. The calcein-loaded liposomes were mixed with calcein-free liposome (1:1) to adjust final liposome concentration. Peptide concentration was added to obtain 1:30 or 1:15 peptide:liposome ratio. Changes in the fluorescence signal after addition of peptide or Triton X-100 was measured on a PTI spectrofluorometer, using an excitation wavelength of 480 nm and emission wavelength of 512 nm. The Percentage calcein released at each time point was calculated using the equation: […]\nSimilar protocol was followed for the preparation of PC/Cholesterol SUVs."}, "[5]": {"assay": "SDS-PAGE pull down assay with cell wall polysaccharides", "assay_type": "binding", "conditions": "chitin or β-D-glucan, 5.5-22 μM, 2 h, 37° C.", "procedure": "In another study to probe the mechanism of action, the affinity of B4010 for insoluble polysaccharides such as chitin and β-D-glucan, the major component of fungal cell walls was examined. B4010 (5.5-22 μM) was incubated with chitin (from shrimp shells) or β-D-glucan for 2 h at 37° C. The mixture was centrifuged at 10,000 g and the supernatant was analyzed by SDS-PAGE (4-20%). A control experiment without chitin/β-D-glucan was also performed to quantify peptide binding to the carbohydrate polymers."}, "C. albicans [6]": {"tested_on": "C. albicans", "assay": "Cell viability assay under diS-C3-5 assay conditions", "assay_type": "cell-based", "conditions": "concentration exceeding 4×MIC", "procedure": "To verify if the dissipation of membrane potential is linked to candidacidal activity, a cell viability assay was performed under identical conditions."}}, "note": "Like-named read-outs stand apart in the source and are kept apart here. Where a SMILES comes first, the peptide text is derived from it. Bridges are numbered along the chain shown (N, C = ends). Roman numbers before positions name the chains, in order.", "data": [{"smiles": "CC(C)[C@H](NC(=O)[C@H](CCCCN)NC(=O)[C@H](CCCNC(=N)N)NC(=O)CNC(=O)[C@@H](N)CCCNC(=N)N)C(=O)N[C@H](C(=O)N[C@@H](CCCNC(=N)N)C(=O)N[C@@H](CCCNC(=N)N)C(=O)NCCCC[C@H](NC(=O)[C@H](CCCNC(=N)N)NC(=O)[C@H](CCCNC(=N)N)NC(=O)[C@@H](NC(=O)[C@@H](NC(=O)[C@H](CCCCN)NC(=O)[C@H](CCCNC(=N)N)NC(=O)CNC(=O)[C@@H](N)CCCNC(=N)N)C(C)C)C(C)C)C(=O)NCCCC[C@H](NC(=O)[C@H](CCCCNC(=O)[C@H](CCCNC(=N)N)NC(=O)[C@H](CCCNC(=N)N)NC(=O)[C@@H](NC(=O)[C@@H](NC(=O)[C@H](CCCCN)NC(=O)[C@H](CCCNC(=N)N)NC(=O)CNC(=O)[C@@H](N)CCCNC(=N)N)C(C)C)C(C)C)NC(=O)[C@H](CCCNC(=N)N)NC(=O)[C@H](CCCNC(=N)N)NC(=O)[C@@H](NC(=O)[C@@H](NC(=O)[C@H](CCCCN)NC(=O)[C@H](CCCNC(=N)N)NC(=O)CNC(=O)[C@@H](N)CCCNC(=N)N)C(C)C)C(C)C)C(=O)N[C@@H](CCCCN)C(=O)O)C(C)C", "note": "[Peptide B4010] (I: H-RGRKVVRRKKK-OH / II: H-RGRKVVRRK / III: H-RGRKVVRR / IV: H-RGRKVVRR; amide I:9-IV:C, I:10-II:C, II:9-III:C; N-terminus and C-terminus assumed)", "values": [{"measurement": "increase in K+- and Ca2+-ions", "setting": "C. albicans [1]", "value": 2, "unit": "fold"}, {"measurement": "calcium concentration in supernatant", "setting": "C. albicans [1]; 5.5 μM, 2 h", "value": "5.8 ± 1.3", "unit": "µM"}, {"measurement": "levels of Na+ and Mg2+ ions", "setting": "C. albicans [1]; 5.5 μM, 2 h", "value": "no significant changes"}, {"measurement": "potassium concentration in supernatant", "setting": "C. albicans [1]; 5.5 μM, 2 h", "value": "104 ± 4.2", "unit": "µM"}, {"measurement": "loss of viability", "setting": "C. albicans [2]", "value": "54±6", "unit": "%"}, {"measurement": "protection from B4010-induced lethality", "setting": "C. albicans [2]; cells pre-incubated with CCCP", "value": "partial protection"}, {"measurement": "viability", "setting": "C. albicans [2]; cells pretreated with TEA and 4-AP", "value": "significant loss of viability"}, {"measurement": "protection from B4010-induced lethality", "setting": "C. albicans [2]; presence of NaN3", "value": "complete protection"}, {"measurement": "antifungal activity after trypsin incubation", "setting": "C. albicans ATCC 10231", "value": "No loss of antifungal activity"}, {"measurement": "MIC", "setting": "[3]; 5% human serum", "value": 5.5, "unit": "µM"}, {"measurement": "MIC", "setting": "[3]; without serum", "value": 0.34, "unit": "µM"}, {"measurement": "SG uptake (permeation)", "setting": "C. albicans (ATCC 10231); 1×MIC", "value": 24, "unit": "%"}, {"measurement": "cells membrane compromised", "setting": "C. albicans (ATCC 10231); 2×MIC, 10 mins", "value": "About 70%"}, {"measurement": "dye uptake", "setting": "C. albicans (ATCC 10231); 4×MIC, within 25 mins", "value": "> 90", "unit": "%"}, {"measurement": "SG uptake (permeation)", "setting": "C. albicans (ATCC 10231); ½×MIC", "value": 13, "unit": "%"}, {"measurement": "calcein release", "setting": "[4]", "value": "about 68%"}, {"measurement": "affinity for cell wall polysaccharides (coprecipitation)", "setting": "[5]", "value": "no affinity"}, {"measurement": "cell viability", "setting": "C. albicans [6]", "value": "complete loss of viability"}]}]}
